Here are results for 25 molecules from US5977373A, “Thiadiazolyl and oxadiazolyl phenyl oxazolidinone antibacterial agents” (Pharmacia & Upjohn Company, priority 1998, dated 1999).

In brackets after ≈: the same amount, converted by molar mass.

One may read the MIC as the lowest concentration that inhibits growth of the organism.

What all share (format): cell-based
For one test, the system named is HI 30063. In words: MIC for a gram negative bacterial strain (Table 2). The conditions noted are these: gram negative bacterial strain HI 30063.
The test system of another test is S. Aureus UC ® 9213. In words: In vitro minimum inhibitory concentration (MIC) by agar dilution, gram-positive bacteria (Table 1). The conditions noted are these: Staphylococcus aureus, UC9213. An excerpt:
(§1) The oxazolidinone antibacterial agents of this invention have useful activity against a variety of microorganisms. The in vitro activity of compounds of this invention can be assessed by standard testing procedures such as the determination of minimum inhibitory concentration (MIC) by agar dilution as described in "Methods for Dilution Antimicrobial Susceptibility Tests for Bacteria That Grow Aerobically" (MFT) published January 1983 by the National Committee for Clinical Laboratory Standards, 771 East Lancaster Avenue, Villanova, Pa. 19084, USA. The activity of selected compounds of this invention against Staphylococcus aureus and Streptococcus pneumoniae are shown in Table 1.
On the technique in general: In agar dilution the substance is mixed into plates at graded concentrations.

Another test concerns S. pneumoniae UC ® 9912. The description is as above. The conditions noted are these: Streptococcus pneumoniae, UC9912.
Text: as §1

For the molecule `CC(=O)NC[C@H]1CN(c2ccc(-c3nnc(CO)s3)c(F)c2)C(=O)O1` [Example 11, (S)-N-[[3-[3-Fluoro-4-(5-hydroxymethyl-1,3,4-thiadiazol-2-yl)phenyl]-2-oxo-5-oxazolidinyl]methyl]acetamide], the MIC in the test on HI 30063 is 4 µg/mL (≈ 10.9 µM); with S. Aureus UC ® 9213 it was 1 µg/mL (≈ 2.73 µM); in the test on S. pneumoniae UC ® 9912, below 0.125 µg/mL.

As to `CC(=O)NC[C@H]1CN(c2ccc(-c3nnc(CC#N)s3)c(F)c2)C(=O)O1` [Example 13, (S)-N-[[3-[4-[5-(Cyanomethyl)-1,3,4-thiadiazol-2-yl]-3-fluorophenyl]-2-oxo-5-oxazolidinyl]methyl]acetamide], the MIC in the test with HI 30063 was 4 µg/mL (≈ 10.7 µM); against S. Aureus UC ® 9213, 2 µg/mL (≈ 5.33 µM); with S. pneumoniae UC ® 9912 it was 0.25 µg/mL (≈ 0.666 µM).

`CC(=O)NC[C@H]1CN(c2ccc(-c3nnc(CC(N)=O)s3)c(F)c2)C(=O)O1` [Example 14, (S)-5-[4-[5-[(Acetylamino)methyl]-2-oxo-3-oxazolidinyl]-2-fluorophenyl]-1,3,4-thiadiazole-2-acetamide]: the figures for the MIC against HI 30063, in the test on S. Aureus UC ® 9213 and in the test on S. pneumoniae UC ® 9912 were 4 µg/mL (≈ 10.2 µM), 4 µg/mL (≈ 10.2 µM) and below 0.125 µg/mL, respectively.

As for `CC(=O)CCc1nnc(-c2ccc(N3C[C@H](CNC(C)=O)OC3=O)cc2F)s1` [Example 16, (S)-N-[[3-[3-Fluoro-4-[5-(3-oxobutyl)-1,3,4-thiadiazol-2-yl]phenyl]-2-oxo-5-oxazolidinyl]methyl]acetamide], the figures for the MIC in the test with HI 30063, against S. Aureus UC ® 9213 and in the test with S. pneumoniae UC ® 9912 were 4 µg/mL (≈ 9.84 µM), 1 µg/mL (≈ 2.46 µM) and below 0.125 µg/mL, respectively.

In the case of `CC(=O)NC[C@H]1CN(c2ccc(-c3nnc(CCC#N)s3)c(F)c2)C(=O)O1` [Example 20, (S)-N-[[3-[4-[5-(2-Cyanoethyl)-1,3,4-thiadiazol-2-yl]-3-fluorophenyl]-2-oxo-5-oxazolidinyl]methyl]acetamide], the MIC is 2 µg/mL (≈ 5.14 µM) in the test on HI 30063, 0.5 µg/mL (≈ 1.28 µM) with S. Aureus UC ® 9213 and below 0.125 µg/mL against S. pneumoniae UC ® 9912.

Regarding `CC(=O)NC[C@H]1CN(c2ccc(-c3nnc(CC[S+](C)[O-])s3)c(F)c2)C(=O)O1` (stereo partly drawn) [Example 24, (S)-N-[[3-[3-Fluoro-4-[5-[2-(methylsulfinyl)ethyl]-1,3,4-thiadiazol-2-yl]phenyl]-2-oxo-5-oxazolidinyl]methyl]acetamide], the MIC with HI 30063 is 4 µg/mL (≈ 9.38 µM); in the test on S. Aureus UC ® 9213, 4 µg/mL (≈ 9.38 µM); against S. pneumoniae UC ® 9912, 0.25 µg/mL (≈ 0.586 µM).

Regarding `CC(=O)NC[C@H]1CN(c2ccc(-c3nnc(CCO)s3)c(F)c2)C(=O)O1` [Example 26, (S)-N-[[3-[3-Fluoro-4-[5-(2-hydroxyethyl)-1,3,4-thiadiazol-2-yl]phenyl]-2-oxo-5-oxazolidinyl]methyl]acetamide], the values for the MIC in the test on HI 30063, against S. Aureus UC ® 9213 and against S. pneumoniae UC ® 9912 were 2 µg/mL (≈ 5.26 µM), 2 µg/mL (≈ 5.26 µM) and below 0.125 µg/mL, respectively.

For `CC(=O)NC[C@H]1CN(c2ccc(-c3n[nH]c(=O)s3)c(F)c2)C(=O)O1` [Example 29, (S)-N-[[3-[4-(4,5-Dihydro-5-oxo-1,3,4-thiadiazol-2-yl)-3-fluorophenyl]-2-oxo-5-oxazolidinyl]methyl]acetamide], the MIC stood at 4 µg/mL (≈ 11.4 µM) with HI 30063, 1 µg/mL (≈ 2.84 µM) against S. Aureus UC ® 9213 and 0.25 µg/mL (≈ 0.71 µM) against S. pneumoniae UC ® 9912.

Regarding `CSc1nnc(-c2ccc(N3C[C@H](CNC(C)=O)OC3=O)cc2F)s1` [Example 31, (S)-N-[[3-[3-Fluoro-4-[5-(methylthio)-1,3,4-thiadiazol-2-yl]phenyl]-2-oxo-5-oxazolidinyl]methyl]acetamide], the results for the minimum inhibitory concentration (MIC) in the test with HI 30063, against S. Aureus UC ® 9213 and with S. pneumoniae UC ® 9912 were 4 µg/mL (≈ 10.5 µM), 0.5 µg/mL (≈ 1.31 µM) and below 0.125 µg/mL, respectively.

Consider `CCC(=O)NC[C@H]1CN(c2ccc(-c3nnc(C)s3)c(F)c2)C(=O)O1` [Example 32, (S)-N-[[3-[3-Fluoro-4-(5-methyl-1,3,4-thiadiazol-2-yl)phenyl]-2-oxo-5-oxazolidinyl]methyl]propanamide], for which the figures for the MIC with HI 30063, with S. Aureus UC ® 9213 and against S. pneumoniae UC ® 9912 were 4 µg/mL (≈ 11 µM), 1 µg/mL (≈ 2.74 µM) and below 0.125 µg/mL, respectively.

For the molecule `CC(=O)NC[C@H]1CN(c2ccc(-c3nnc([S+](C)[O-])s3)c(F)c2)C(=O)O1` (stereo partly drawn) [Example 47, (5S)-N-[[3-[3-Fluoro-4-[5-(methylsulfinyl)-1,3,4-thiadiazol-2-yl]phenyl]-2-oxo-5-oxazolidinyl]methyl]acetamide], the figures for the MIC in the test on HI 30063, against S. Aureus UC ® 9213 and in the test with S. pneumoniae UC ® 9912 were 4 µg/mL (≈ 10 µM), 2 µg/mL (≈ 5.02 µM) and 0.25 µg/mL (≈ 0.627 µM), respectively.

Take `CC(=O)NC[C@H]1CN(c2ccc(-c3nnc(CCCO)s3)c(F)c2)C(=O)O1` [Example 50, (S)-N-[[3-[3-Fluoro-4-[5-(3-hydroxypropyl)-1,3,4-thiadiazol-2-yl]phenyl]-2-oxo-5-oxazolidinyl]methyl]acetamide]: the MIC against HI 30063 amounted to 4 µg/mL (≈ 10.1 µM); in the test with S. Aureus UC ® 9213, 2 µg/mL (≈ 5.07 µM); in the test on S. pneumoniae UC ® 9912 it was 0.25 µg/mL (≈ 0.634 µM).

On to `CC(=O)NC[C@H]1CN(c2ccc(-c3nnc([C@H](C)O)s3)c(F)c2)C(=O)O1` [Example 51, [S-(R*,R*)]-N-[[3-[3-Fluoro-4-[5-(1-hydroxyethyl)-1,3,4-thiadiazol-2-yl]phenyl]-2-oxo-5-oxazolidinyl]methyl]acetamide], for which the results for the MIC against HI 30063, with S. Aureus UC ® 9213 and in the test on S. pneumoniae UC ® 9912 were 4 µg/mL (≈ 10.5 µM), 2 µg/mL (≈ 5.26 µM) and 0.25 µg/mL (≈ 0.657 µM), respectively.

Turning to `CC(=O)NC[C@H]1CN(c2ccc(-c3nnc([C@@H](C)O)s3)c(F)c2)C(=O)O1` [Example 52, [S-(R*,S*)]-N-[[3-[3-Fluoro-4-[5-(1-hydroxyethyl)-1,3,4-thiadiazol-2-yl]phenyl]-2-oxo-5-oxazolidinyl]methyl]acetamide], the results for the MIC against HI 30063, with S. Aureus UC ® 9213 and against S. pneumoniae UC ® 9912 were 4 µg/mL (≈ 10.5 µM), 2 µg/mL (≈ 5.26 µM) and 0.25 µg/mL (≈ 0.657 µM), respectively.

Take `CC(=O)NC[C@H]1CN(c2ccc(-c3nnc(CC[N+](=O)[O-])s3)c(F)c2)C(=O)O1` [Example 53, (S)-N-[[3-[3-Fluoro-4-[5-(2-nitroethyl)-1,3,4-thiadiazol-2-yl]phenyl]-2-oxo-5-oxazolidinyl]methyl]acetamide]: the MIC in the test with HI 30063 is 4 µg/mL (≈ 9.77 µM); against S. Aureus UC ® 9213, 1 µg/mL (≈ 2.44 µM); against S. pneumoniae UC ® 9912, 0.25 µg/mL (≈ 0.611 µM).

`CC(=O)NC[C@H]1CN(c2ccc(-c3nnc(CCC[N+](=O)[O-])s3)c(F)c2)C(=O)O1` [Example 54, (S)-N-[[3-[3-Fluoro-4-[5-(3-nitropropyl)-1,3,4-thiadiazol-2-yl]phenyl]-2-oxo-5-oxazolidinyl]methyl]acetamide]: the values for the MIC in the test on HI 30063, in the test on S. Aureus UC ® 9213 and in the test with S. pneumoniae UC ® 9912 were 4 µg/mL (≈ 9.45 µM), 2 µg/mL (≈ 4.72 µM) and 0.25 µg/mL (≈ 0.59 µM), respectively.

As for `CC(=O)NC[C@H]1CN(c2ccc(-c3nnc([C@H](C)N)s3)c(F)c2)C(=O)O1` [Example 55, [S-(R*,R*)]-N-[[3-[4-[5-(1-Aminoethyl)-1,3,4-thiadiazol-2-yl]-3-fluorophenyl]-2-oxo-5-oxazolidinyl]methyl]acetamide], the MIC in the test on HI 30063 is 4 µg/mL (≈ 10.5 µM); in the test with S. Aureus UC ® 9213 it was 8 µg/mL (≈ 21.1 µM); in the test with S. pneumoniae UC ® 9912, below 0.125 µg/mL.

For `CC(=O)NC[C@H]1CN(c2ccc(-c3nnc([C@@H](C)N)s3)c(F)c2)C(=O)O1` [Example 56, [S-(R*,S*)]-N-[[3-[4-[5-(1-Aminoethyl)-1,3,4-thiadiazol-2-yl]-3-fluorophenyl]-2-oxo-5-oxazolidinyl]methyl]acetamide], the MIC is 4 µg/mL (≈ 10.5 µM) in the test on HI 30063, 4 µg/mL (≈ 10.5 µM) with S. Aureus UC ® 9213 and below 0.125 µg/mL in the test with S. pneumoniae UC ® 9912.

Consider `CC(=O)NC[C@H]1CN(c2ccc(-c3nnc(CCCC#N)s3)c(F)c2)C(=O)O1` [Example 61, (S)-N-[[3-[4-[5-(3-Cyanopropyl)-1,3,4-thiadiazol-2-yl]-3-fluorophenyl]-2-oxo-5-oxazolidinyl]methyl]acetamide], for which the MIC with HI 30063 was 4 µg/mL (≈ 9.91 µM); against S. Aureus UC ® 9213, 1 µg/mL (≈ 2.48 µM); against S. pneumoniae UC ® 9912 it was below 0.125 µg/mL.

On to `CC(=O)NC[C@H]1CN(c2ccc(-c3nnc(CCC(C)=NO)s3)c(F)c2)C(=O)O1` [Example 63, (S)-N-[[3-[3-Fluoro-4-[5-[3-(hydroxyimino)butyl]-1,3,4-thiadiazol-2-yl]phenyl]-2-oxo-5-oxazolidinyl]methyl]acetamide], for which the MIC against HI 30063 was 4 µg/mL (≈ 9.49 µM); against S. Aureus UC ® 9213, 2 µg/mL (≈ 4.75 µM); against S. pneumoniae UC ® 9912, below 0.125 µg/mL.

As to `CC(=O)NC[C@H]1CN(c2ccc(-c3nnc(CC=NO)s3)c(F)c2)C(=O)O1` [Example 64, (S)-N-[[3-[3-Fluoro-4-[5-[2-(hydroxyimino)ethyl]-1,3,4-thiadiazol-2-yl]phenyl]-2-oxo-5-oxazolidinyl]methyl]acetamide], the MIC in the test with HI 30063 was 2 µg/mL (≈ 5.08 µM); in the test on S. Aureus UC ® 9213 it was 1 µg/mL (≈ 2.54 µM); with S. pneumoniae UC ® 9912, below 0.125 µg/mL.

Take `CC(=O)NC[C@H]1CN(c2ccc(-c3nnc(CCS(C)(=O)=O)s3)c(F)c2)C(=O)O1` [Example 70, (S)-N-[[3-[3-Fluoro-4-[5-[2-(methylsulfonyl)ethyl]-1,3,4-thiadiazol-2-yl]phenyl]-2-oxo-5-oxazolidinyl]methyl]acetamide]: the MIC against HI 30063 is 4 µg/mL (≈ 9.04 µM); in the test with S. Aureus UC ® 9213 it was 4 µg/mL (≈ 9.04 µM); in the test on S. pneumoniae UC ® 9912 it was below 0.5 µg/mL.

Consider `CCC(=O)NC[C@H]1CN(c2ccc(-c3nncs3)c(F)c2)C(=O)O1` [Example 71, (S)-N-[[3-[3-Fluoro-4-(1,3,4-thiadiazol-2-yl)phenyl]-2-oxo-5-oxazolidinyl]methyl]propanamide], for which the values for the MIC in the test with HI 30063, with S. Aureus UC ® 9213 and against S. pneumoniae UC ® 9912 were 4 µg/mL (≈ 11.4 µM), 1 µg/mL (≈ 2.85 µM) and 0.25 µg/mL (≈ 0.714 µM), respectively.

For `CC(=S)NC[C@H]1CN(c2ccc(-c3nncs3)c(F)c2)C(=O)O1` [Example 74, (S)-N-[[3-[3-Fluoro-4-(1,3,4-thiadiazol-2-yl)phenyl]-2-oxo-5-oxazolidinyl]methyl]ethanethioamide], the MIC in the test with HI 30063 was 1 µg/mL (≈ 2.84 µM); in the test with S. Aureus UC ® 9213 it was 0.25 µg/mL (≈ 0.709 µM); with S. pneumoniae UC ® 9912 it was below 0.125 µg/mL.

Turning to `NC(=S)NC[C@H]1CN(c2ccc(-c3nncs3)c(F)c2)C(=O)O1` [Example 75, (S)-[[3-[3-Fluoro-4-(1,3,4-thiadiazol-2-yl)phenyl]-2-oxo-5-oxazolidinyl]methyl]thiourea], the MIC is 1 µg/mL (≈ 2.83 µM) with HI 30063, 0.25 µg/mL (≈ 0.707 µM) against S. Aureus UC ® 9213 and below 0.125 µg/mL against S. pneumoniae UC ® 9912.
